pIC50: −log10 of the molar value.
How the values were obtained:
[1] = test system: LNCaP; test: Induction of PGE2 production in human LNCAP cells at 41.9 nM to 100 uM after 16 hrs by HTRF assay relative to control; format: functional
[2] = test system: LNCaP; test: Induction of PGE2 production in human LNCAP cells assessed as half-maximal activation concentration after 16 hrs by HTRF assay; format: functional, cell-based
[3] = test system: A549; test: Induction of PGE2 production in human A549 cells at 775 pM to 45.8 uM after 4 to 20 hrs by HTRF assay relative to control; format: functional
[4] = test system: A549; test: Induction of PGE2 production in human A549 cells assessed as concentration required for half-maximal activation after 4 to 20 hrs by HTRF assay; format: functional, cell-based
[5] = Kinetic solubility of the compound in PBS buffer at pH 7.4; format: physicochemical
[6] = test system: Liver microsome; test: Half life in rat liver microsomes in presence of NADPH; format: ADME
[7] = Passive permeability of the compound at pH 7.4 by PAMPA; format: ADME
[8] = target: T1, 15-hydroxyprostaglandin dehydrogenase [NAD(+)] (Homo sapiens, UniProt P15428); test: Inhibition of human HPGD using PGE2 as substrate after 15 mins by fluorescence assay
T1 sequence (P15428 whole entry): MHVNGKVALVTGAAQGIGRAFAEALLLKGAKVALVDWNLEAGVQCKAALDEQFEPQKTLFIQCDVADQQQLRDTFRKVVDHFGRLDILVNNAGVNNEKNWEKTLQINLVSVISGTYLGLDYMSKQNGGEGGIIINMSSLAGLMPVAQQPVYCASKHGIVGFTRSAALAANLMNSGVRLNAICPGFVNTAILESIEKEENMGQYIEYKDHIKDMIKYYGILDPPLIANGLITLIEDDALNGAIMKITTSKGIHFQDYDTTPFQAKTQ

[9] = target: T2, Aldehyde dehydrogenase 1A1 (Homo sapiens, UniProt P00352); test: Inhibition of ALDH1A1 (unknown origin) using NAD+/propionaldehyde as substrate after 15 mins by UV-fluorescence assay
T2 sequence (P00352 whole entry): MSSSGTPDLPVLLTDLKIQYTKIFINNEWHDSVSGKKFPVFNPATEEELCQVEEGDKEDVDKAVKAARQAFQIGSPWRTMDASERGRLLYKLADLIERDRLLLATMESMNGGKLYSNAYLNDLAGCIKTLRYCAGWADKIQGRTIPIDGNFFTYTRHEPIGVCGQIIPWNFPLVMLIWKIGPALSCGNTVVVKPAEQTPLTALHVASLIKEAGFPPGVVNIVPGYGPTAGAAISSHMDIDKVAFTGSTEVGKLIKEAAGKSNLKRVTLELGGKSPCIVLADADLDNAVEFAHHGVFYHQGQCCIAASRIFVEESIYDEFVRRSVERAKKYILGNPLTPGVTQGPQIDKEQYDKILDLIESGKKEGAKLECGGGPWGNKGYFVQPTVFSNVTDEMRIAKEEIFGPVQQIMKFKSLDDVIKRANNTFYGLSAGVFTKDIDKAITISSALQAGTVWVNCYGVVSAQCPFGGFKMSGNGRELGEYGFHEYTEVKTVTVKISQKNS

[10] = target: T3, Peroxisomal multifunctional enzyme type 2 (Homo sapiens, UniProt P51659); test: Inhibition of HSD17beta4 (unknown origin) using NAD+/estradiol as substrate at 324 pM to 57.2 uM after 15 mins by UV-fluorescence assay
T3 sequence (P51659 whole entry): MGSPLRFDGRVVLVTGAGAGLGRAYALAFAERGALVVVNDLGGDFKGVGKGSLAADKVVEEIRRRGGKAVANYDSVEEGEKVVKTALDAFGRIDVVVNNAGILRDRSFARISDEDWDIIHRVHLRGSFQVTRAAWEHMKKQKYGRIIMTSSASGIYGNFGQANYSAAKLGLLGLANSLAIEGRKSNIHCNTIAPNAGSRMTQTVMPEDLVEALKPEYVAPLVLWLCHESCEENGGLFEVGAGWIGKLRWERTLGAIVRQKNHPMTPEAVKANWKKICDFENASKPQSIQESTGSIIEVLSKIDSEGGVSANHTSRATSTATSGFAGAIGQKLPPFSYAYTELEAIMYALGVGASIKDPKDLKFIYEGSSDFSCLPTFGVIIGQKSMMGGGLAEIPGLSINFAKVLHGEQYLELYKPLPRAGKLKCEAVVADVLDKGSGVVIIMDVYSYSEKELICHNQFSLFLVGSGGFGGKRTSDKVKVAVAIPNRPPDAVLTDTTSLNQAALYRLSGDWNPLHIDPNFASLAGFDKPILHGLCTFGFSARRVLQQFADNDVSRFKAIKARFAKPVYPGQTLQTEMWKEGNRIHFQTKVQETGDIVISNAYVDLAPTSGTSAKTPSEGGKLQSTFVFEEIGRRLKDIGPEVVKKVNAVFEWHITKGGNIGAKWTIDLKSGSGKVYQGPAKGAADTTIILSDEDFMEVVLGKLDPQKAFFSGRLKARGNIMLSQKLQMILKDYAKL

[11] = target: L-lactate dehydrogenase B chain (Homo sapiens, UniProt P07195); test: Inhibition of LDHB (unknown origin) using sodium pyruvate as substrate at 0.46 to 57.5 uM after 15 mins by fluorescence assay
[12] = target: L-lactate dehydrogenase A chain (Homo sapiens, UniProt P00338); test: Inhibition of LDHA (unknown origin) using sodium pyruvate as substrate at 0.46 to 57.5 uM after 15 mins by fluorescence assay
[13] = target: Glyceraldehyde-3-phosphate dehydrogenase (Oryctolagus cuniculus, UniProt P46406); test: Inhibition of rabbit muscle GAPDH using glyceraldehyde-3-phosphate as substrate at 324 pM to 57.2 uM by fluorescence assay
Chain of Glyceraldehyde-3-phosphate dehydrogenase (P46406 whole entry): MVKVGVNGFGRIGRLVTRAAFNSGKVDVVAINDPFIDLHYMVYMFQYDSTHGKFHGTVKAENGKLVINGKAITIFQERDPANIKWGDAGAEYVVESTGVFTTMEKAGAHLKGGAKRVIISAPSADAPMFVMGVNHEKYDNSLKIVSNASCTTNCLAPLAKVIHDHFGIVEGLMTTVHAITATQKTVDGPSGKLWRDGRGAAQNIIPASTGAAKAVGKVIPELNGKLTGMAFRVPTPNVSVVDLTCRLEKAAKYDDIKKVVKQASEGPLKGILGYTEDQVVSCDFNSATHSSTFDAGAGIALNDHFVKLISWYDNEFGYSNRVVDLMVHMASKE

Chain of L-lactate dehydrogenase B chain (P07195 whole entry): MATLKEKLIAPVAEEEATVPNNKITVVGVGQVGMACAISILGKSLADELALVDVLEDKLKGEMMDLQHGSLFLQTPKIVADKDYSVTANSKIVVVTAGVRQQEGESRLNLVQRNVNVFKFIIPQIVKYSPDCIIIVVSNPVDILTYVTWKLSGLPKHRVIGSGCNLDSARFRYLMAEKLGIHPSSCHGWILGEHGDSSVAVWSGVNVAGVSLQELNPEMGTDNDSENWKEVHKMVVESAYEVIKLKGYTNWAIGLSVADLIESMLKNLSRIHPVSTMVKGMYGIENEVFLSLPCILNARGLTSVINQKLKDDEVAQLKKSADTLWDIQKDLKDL

Cc1cccc(-n2cnc3cc(C(=O)N4CCCCC4)ccc32)c1
Activity [1]: 62%
AC50 [2]: 0.884 µM
Activity [3]: 129%
AC50 [4]: 0.469 µM
Kinetic_solubility [5]: > 47 µM
t1/2 [6]: 7.3 min
permeability [7]: 1200 ×10⁻⁶ cm/s
pIC50 [8]: 7.72

Cc1cc(-c2nnc3n2CCCCC3)c(C)n1-c1ccccc1
Activity [1]: 73%
Activity [3]: 106%
Kinetic_solubility [5]: > 45 µM
permeability [7]: 599 ×10⁻⁶ cm/s
pIC50 [8]: 7.27

Cc1cc(-c2nnc3n2CCCCC3)c(C)n1-c1ccc(F)cc1
pIC50 [8]: 6.92

COc1ccccc1-n1cnc2cc(C(=O)N3CCCCC3)ccc21
pIC50 [8]: 7.57

Cc1cc(-c2nnc3n2CCCCC3)c(C)n1-c1ccc(Cl)cc1
pIC50 [8]: 7.42

Cc1cc(-c2nnc3n2CCCCC3)c(C)n1-c1ccc(Br)cc1
pIC50 [8]: 7.32

Cc1cc(-c2nnc3n2CCCCC3)c(C)n1-c1ccc(C(F)(F)F)cc1
pIC50 [8]: 7.17

Cc1cc(-c2nnc3n2CCCCC3)c(C)n1-c1cccc(C#N)c1
Activity [1]: 63%
AC50 [2]: 1.77 µM
Activity [3]: 350%
AC50 [4]: 2.64 µM
pIC50 [9]: 5.17
IC50 [10]: Not Active
IC50 [11]: Not Active
IC50 [12]: Not Active
IC50 [13]: Not Active
Kinetic_solubility [5]: > 49 µM
t1/2 [6]: 8.1 min
permeability [7]: 229 ×10⁻⁶ cm/s
pIC50 [8]: 7.12

Cc1cc(-c2nnc3n2CCCCC3)c(C)n1-c1ccc(C#N)cc1
pIC50 [8]: 7.02

COc1ccc(-n2c(C)cc(-c3nnc4n3CCCCC4)c2C)cc1
pIC50 [8]: 7.07

Cc1cc(-c2nnc3n2CCCCC3)c(C)n1-c1ccc([N+](=O)[O-])cc1
pIC50 [8]: 6.97

Cc1cc(-c2nnc3n2CCCCC3)c(C)n1-c1ccc(C(C)(C)C)cc1
pIC50 [8]: 6.87

CCOC(=O)c1ccc(-n2c(C)cc(-c3nnc4n3CCCCC4)c2C)cc1
pIC50 [8]: 7.42

Cc1cc(-c2nnc3n2CCCCC3)c(C)n1-c1ccccn1
pIC50 [8]: 5.97

Cc1cc(-c2nnc3n2CCCCC3)c(C)n1-c1cccnc1
pIC50 [8]: 6.57

Cc1cc(-c2nnc3n2CCCCC3)c(C)n1-c1ccncc1
pIC50 [8]: 6.42

Cc1cc(-c2nnc3n2CCCCC3)c(C)n1-c1cccc2ccccc12
pIC50 [8]: 6.97

Cc1cc(-c2nnc3n2CCC3)c(C)n1-c1ccccc1
pIC50 [8]: 5.52

Cc1cc(-c2nnc3n2CCCC3)c(C)n1-c1ccccc1
pIC50 [8]: 6.72

Cc1cc(-c2nnc3n2CCCCCC3)c(C)n1-c1ccccc1
pIC50 [8]: 6.62

Cc1cc(-c2nnc3n2CCCCCCC3)c(C)n1-c1ccccc1
pIC50 [8]: 6.42

c1ccc(-n2ccc(-c3nnc4n3CCCCC4)c2)cc1
pIC50 [8]: 6.22

c1ccc(-n2ccc(-c3nnc4n3CCCCC4)n2)cc1
pIC50 [8]: 5.42

c1ccc(-n2cc(-c3nnc4n3CCCCC4)c3ccccc32)cc1
pIC50 [8]: 6.17

Cc1cccc(-n2cnc3cc(C(=O)N4CCCC(C)C4)ccc32)c1 (centres undefined)
pIC50 [8]: 7.66

Cc1cccc(-n2cnc3cc(C(=O)N4CC(C)CC(C)C4)ccc32)c1 (centres undefined)
pIC50 [8]: 6.57

Cc1cccc(-n2cnc3cc(C(=O)N4CCCC(C(C)C)C4)ccc32)c1 (centres undefined)
pIC50 [8]: 7.32

Cc1cccc(-n2cnc3cc(C(=O)N4CCCC(C)(C)C4)ccc32)c1
Activity [1]: 53%
AC50 [2]: 4.43 µM
Activity [3]: 127%
AC50 [4]: 0.743 µM
pIC50 [9]: 5.72
IC50 [10]: Not Active
IC50 [11]: Not Active
IC50 [12]: Not Active
IC50 [13]: Not Active
Kinetic_solubility [5]: 5.6 µM
t1/2 [6]: 1.8 min
permeability [7]: 2260 ×10⁻⁶ cm/s
pIC50 [8]: 7.17

Cc1cccc(-n2cnc3cc(C(=O)N4CCCC(C(F)(F)F)C4)ccc32)c1 (centres undefined)
pIC50 [8]: 7.17

Cc1cccc(-n2cnc3cc(C(=O)N4CCC(C(F)(F)F)CC4)ccc32)c1
pIC50 [8]: 5.82

Cc1cccc(-n2cnc3cc(C(=O)N4CCCC4)ccc32)c1
pIC50 [8]: 6.42

Cc1cccc(-n2cnc3cc(C(=O)N4CCCC(c5ccccc5)C4)ccc32)c1 (centres undefined)
pIC50 [8]: 6.37

Cc1cccc(-n2cnc3cc(C(=O)NC4CCCC4)ccc32)c1
pIC50 [8]: 6.02

CCCCNC(=O)c1ccc2c(c1)ncn2-c1cccc(C)c1
pIC50 [8]: 5.87

Cc1cccc(-n2cnc3cc(C(=O)N4CCN(C)CC4)ccc32)c1
pIC50 [8]: 5.57

Cc1cccc(-n2cnc3cc(C(=O)N4CCOCC4)ccc32)c1
pIC50 [8]: 5.52

O=C(c1ccc2c(c1)ncn2-c1ccccc1)N1CCCCC1
pIC50 [8]: 7.66

O=C(c1ccc2c(c1)ncn2-c1cccc(Cl)c1)N1CCCCC1
Activity [1]: 85%
AC50 [2]: 0.222 µM
Activity [3]: 170%
pIC50 [9]: 5.72
IC50 [10]: Not Active
IC50 [11]: Not Active
IC50 [12]: Not Active
IC50 [13]: Not Active
Kinetic_solubility [5]: > 50 µM
t1/2 [6]: 6.4 min
permeability [7]: 895 ×10⁻⁶ cm/s
pIC50 [8]: 7.92

COc1cccc(-n2cnc3cc(C(=O)N4CCCCC4)ccc32)c1
pIC50 [8]: 7.72

O=C(c1ccc2c(c1)ncn2-c1cccc(C(F)(F)F)c1)N1CCCCC1
Activity [1]: 70%
AC50 [2]: 2.8 µM
Activity [3]: 173%
AC50 [4]: 2.64 µM
pIC50 [9]: 5.17
IC50 [10]: Not Active
IC50 [11]: Not Active
IC50 [12]: Not Active
IC50 [13]: Not Active
Kinetic_solubility [5]: > 55 µM
t1/2 [6]: 4.4 min
permeability [7]: 1350 ×10⁻⁶ cm/s
pIC50 [8]: 7.32

CC(C)c1cccc(-n2cnc3cc(C(=O)N4CCCCC4)ccc32)c1
pIC50 [8]: 7.17

CC(C)(C)c1cccc(-n2cnc3cc(C(=O)N4CCCCC4)ccc32)c1
pIC50 [8]: 6.77

Cc1ccc(-n2cnc3cc(C(=O)N4CCCCC4)ccc32)cc1
pIC50 [8]: 7.72

O=C(c1ccc2c(c1)ncn2-c1ccc(Cl)cc1)N1CCCCC1
pIC50 [8]: 7.66

COc1ccc(-n2cnc3cc(C(=O)N4CCCCC4)ccc32)cc1
Activity [1]: 69%
AC50 [2]: 0.884 µM
Activity [3]: 174%
AC50 [4]: 0.662 µM
pIC50 [9]: 5.87
IC50 [10]: Not Active
IC50 [11]: Not Active
IC50 [12]: Not Active
IC50 [13]: Not Active
Kinetic_solubility [5]: > 50 µM
t1/2 [6]: 23 min
permeability [7]: 624 ×10⁻⁶ cm/s
pIC50 [8]: 7.72

O=C(c1ccc2c(c1)ncn2-c1ccc(C(F)(F)F)cc1)N1CCCCC1
pIC50 [8]: 7.07

CC(C)(C)c1ccc(-n2cnc3cc(C(=O)N4CCCCC4)ccc32)cc1
pIC50 [8]: 7.27

CC(C)(C)n1cnc2cc(C(=O)N3CCCCC3)ccc21
pIC50 [8]: 7.47

CCCCn1cnc2cc(C(=O)N3CCCCC3)ccc21
pIC50 [8]: 7.17

Source: ChEMBL document CHEMBL3102731, “Structure-activity relationship studies and biological characterization of human NAD(+)-dependent 15-hydroxyprostaglandin dehydrogenase inhibitors” (Bioorg Med Chem Lett, 2014)
